Reference: patent US10611740B2, “Aryl dihydro-2H-benzo[b][1,4]oxazine sulfonamide and related compounds for use as agonists of RORγ and the treatment of disease” (Lycera Corporation, priority 2015, dated 2020)

Tests used:
RORγ-LBD = biological target: T1, RORγ-LBD (Homo sapiens, UniProt P51449); assay: RORγ-Ligand Binding Domain (LBD) TR-FRET Assay; assay type: biochemical;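 as to TR-FRET Assay Max Response: 665/615 nm ratio relative to signal without ursolic acid or compound set at 100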
T1 construct: made in house; host or cells: SF9 cells (baculovirus)
T1 sequence (P51449 269-508 limits assumed): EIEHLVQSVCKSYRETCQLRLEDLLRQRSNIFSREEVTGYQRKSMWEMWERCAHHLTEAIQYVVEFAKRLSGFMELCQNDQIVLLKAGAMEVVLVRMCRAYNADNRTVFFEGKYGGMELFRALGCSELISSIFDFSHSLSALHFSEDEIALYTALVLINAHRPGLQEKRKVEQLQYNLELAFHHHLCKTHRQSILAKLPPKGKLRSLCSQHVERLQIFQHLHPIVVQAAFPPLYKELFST
In short: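 His-tagged RORγ-LBD from SF9 baculovirus lysate, ~3 nM final, in 50 mM Tris pH 7.0, 50 mM KCl, 1 mM EDTA, 0.1 mM DTT, 0.01% BSA. Biotinylated SRC1 LXXLL peptide at 200 nM final with 2 μM ursolic acid; TR-FRET read-out, 1% DMSO final.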

Gal4-RORγ-LBD = biological target: T2, Gal4-RORγ-LBD (Homo sapiens, UniProt P51449); assay: Gal4-RORγ Luciferase Reporter Assay in HEK-293T Cells; assay type: cell-based; conditions: HEK-293 cells
T2 construct: expressed in transfected cells; host or cells: HEK-293 cells (pcDNA3.1neo plasmid)
T2 sequence (P51449 269-508 limits assumed): T1 sequence (P51449 269-508 limits assumed)
In short: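 HEK-293 cells were transiently co-transfected with Gal4-RORγ-LBD and pGL4.31 Gal4-luciferase, with ursolic acid added at 2 μM final. Compounds were incubated overnight at 37° C. in 0.2% DMSO and luminescence read with One-Glo. Max Response is the upper plateau of a 4-parameter logistic fit, with signal lacking ursolic acid or compound set to 100.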

[1] = luciferase reporter, with 2 μM ursolic acid

Row | Structure (SMILES) | EC50 (RORγ-LBD) [nM] | EC50 (Gal4-RORγ-LBD; [1]) [nM] | EC50 (Gal4-RORγ-LBD; 2 μM ursolic acid) [nM] | TR-FRET Assay Max Response (RORγ-LBD) | Gal4-RORγ Assay Max Response (Gal4-RORγ-LBD; [1]) | Gal4-RORγ Assay Max Response (Gal4-RORγ-LBD; 2 μM ursolic acid)
1 | O=C(O)CC[C@H]1CN(S(=O)(=O)c2cccc(C(F)(F)F)c2)c2cc(-c3cncc(C(F)(F)F)c3)ccc2O1 [Compound 2AK, (S)-3-(4-((3-(trifluoromethyl)-phenyl)sulfonyl)-6-(5-(trifluoromethyl)pyridin-3-yl)-3,4-dihydro-2H-benzo[b][1,4]oxazin-2-yl)propanoic acid] | < 500 | < 500 |  | **** (The symbol “****” indicates a value greater than 200) | ** (The symbol “**” indicates a value in the range of greater than 90 to 150) | 
2 | O=C(O)CCC[C@H]1CN(S(=O)(=O)c2cccc(C(F)(F)F)c2)c2cc(-c3cc(F)cc(F)c3Cl)ccc2O1 [Compound 21D, (S)-4-(6-(2-chloro-3,5-difluorophenyl)-4-((3-(trifluoromethyl)phenyl)sulfonyl)-3,4-dihydro-2H-benzo[b][1,4]-oxazin-2-yl)butanoic acid] | < 500 | < 500 |  | *** (The symbol “***” indicates a value in the range of greater than 150 to 200) | *** (The symbol “***” indicates a value in the range of greater than 150 to 200) | 
3 | COc1cc(S(=O)(=O)N2C[C@H](CNC(=O)C(C)(C)O)Oc3ccc(-c4cc(F)ccc4F)cc32)ccc1F [Compound 30Q, (S)-N-((6-(2,5-difluorophenyl)-4-((4-fluoro-3-methoxyphenyl)-sulfonyl)-3,4-dihydro-2H-benzo[b][1,4]oxazin-2-yl)methyl)-2-hydroxy-2-methylpropanamide] | < 500 | < 500 |  | **** (The symbol “****” indicates a value greater than 200) | * (The symbol “*” indicates a value in the range of 25 to 90) | 
4 | O=C(O)CC[C@H]1CN(S(=O)(=O)c2cccc(C(F)(F)F)c2)c2cc(-c3nc(C(F)(F)F)cs3)ccc2O1 [Compound 4G, (S)-3-(4-((3-(trifluoromethyl)phenyl)sulfonyl)-6-(4-(trifluoromethyl)thiazol-2-yl)-3,4-dihydro-2H-benzo[b][1,4]oxazin-2-yl)propanoic acid] | < 500 | 500 to 5000 |  | **** (The symbol “****” indicates a value greater than 200) | ** (The symbol “**” indicates a value in the range of greater than 90 to 150) | 
5 | O=C(O)C1(C[C@H]2CN(S(=O)(=O)c3cccc(C4CC4)c3)c3cc(-c4cc(F)ccc4F)ccc3O2)COC1 [Compound 51E, (S)-3-((4-((3-cyclopropylphenyl)sulfonyl)-6-(2,5-difluorophenyl)-3,4-dihydro-2H-benzo[b][1,4]oxazin-2-yl)methyl)oxetane-3-carboxylic acid] | < 500 |  | > 10000 | *** (The symbol “***” indicates a value in the range of greater than 150 to 200) |  | *** (The symbol “***” indicates a value in the range of greater than 150 to 200)
6 | CC(C)(C[C@H]1CN(S(=O)(=O)c2cccc(C(F)(F)F)c2)c2cc(-c3cc(F)ccc3F)ccc2O1)C(=O)O [Compound 31, (S)-3-(6-(2,5-difluorophenyl)-4-((3-(trifluoromethyl)phenyl)sulfonyl)-3,4-dihydro-2H-benzo[b][1,4]oxazin-2-yl)-2,2-dimethylpropanoic Acid] | < 500 | < 500 |  | **** (The symbol “****” indicates a value greater than 200) | ** (The symbol “**” indicates a value in the range of greater than 90 to 150) | 
7 | O=C(O)CC[C@H]1CN(S(=O)(=O)c2cccc(C(F)(F)F)c2)c2cc(-c3cccc(OC(F)(F)F)c3)ccc2O1 [Compound 2AP, (S)-3-(6-(3-(trifluoromethoxy)-phenyl)-4-((3-(trifluoromethyl)-phenyl)sulfonyl)-3,4-dihydro-2H-benzo[b][1,4]oxazin-2-yl)propanoic acid] | < 500 | < 500 |  | **** (The symbol “****” indicates a value greater than 200) | ** (The symbol “**” indicates a value in the range of greater than 90 to 150) | 
8 | CC(C)(C[C@H]1CN(S(=O)(=O)c2cccc(C(F)(F)F)c2)c2cc(-c3ccccc3C#N)ccc2O1)C(=O)O [Compound 32AF, (S)-3-(6-(2-cyanophenyl)-4-((3-(trifluoromethyl)phenyl)sulfonyl)-3,4-dihydro-2H-benzo[b][1,4]-oxazin-2-yl)-2,2-dimethyl-propanoic acid] | < 500 |  | 500 to 5000 | *** (The symbol “***” indicates a value in the range of greater than 150 to 200) |  | ** (The symbol “**” indicates a value in the range of greater than 90 to 150)
9 | COc1cc(F)cc(-c2ccc3c(c2)N(S(=O)(=O)c2cccc(C(F)(F)F)c2)C[C@H](CNC(=O)C(C)(C)O)O3)c1F [Compound 30L, (S)-N-((6-(2,5-difluoro-3-methoxyphenyl)-4-((3-(trifluoromethyl)phenyl)sulfonyl)-3,4-dihydro-2H-benzo[b][1,4]oxazin-2-yl)methyl)-2-hydroxy-2-methylpropanamide] | < 500 | < 500 |  | **** (The symbol “****” indicates a value greater than 200) | * (The symbol “*” indicates a value in the range of 25 to 90) | 

More lines, main results first:

Row | EC50 (RORγ-LBD) [nM] | EC50 (Gal4-RORγ-LBD; [1]) [nM] | EC50 (Gal4-RORγ-LBD; 2 μM ursolic acid) [nM] | Structure (SMILES) | TR-FRET Assay Max Response (RORγ-LBD) | Gal4-RORγ Assay Max Response (Gal4-RORγ-LBD; [1]) | Gal4-RORγ Assay Max Response (Gal4-RORγ-LBD; 2 μM ursolic acid)
10 | < 500 | < 500 |  | C[C@](O)(CC[C@H]1CN(S(=O)(=O)c2cccc(C(F)(F)F)c2)c2cc(-c3cc(F)ccc3F)ccc2O1)C(=O)O [Compound 39, (S)-4-((S)-6-(2,5-difluorophenyl)-4-((3-(trifluoromethyl)phenyl)sulfonyl)-3,4-dihydro-2H-benzo[b][1,4]oxazin-2-yl)-2-hydroxy-2-methylbutanoic acid] | **** (The symbol “****” indicates a value greater than 200) | ** (The symbol “**” indicates a value in the range of greater than 90 to 150) | 
11 | < 500 |  | 500 to 5000 | O=C(O)C1CC(=O)N(C[C@H]2CN(S(=O)(=O)c3cccc(C(F)(F)F)c3)c3cc(-c4cc(F)ccc4F)ccc3O2)C1 (stereo partly drawn) [Compound 18, 1-(((S)-6-(2,5-difluorophenyl)-4-((3-(trifluoromethyl)phenyl)sulfonyl)-3,4-dihydro-2H-benzo[b][1,4]oxazin-2-yl)methyl)-5-oxopyrrolidine-3-carboxylic acid] | **** (The symbol “****” indicates a value greater than 200) |  | ** (The symbol “**” indicates a value in the range of greater than 90 to 150)
12 | < 500 | < 500 |  | COc1ccc(-c2ccc3c(c2)N(S(=O)(=O)c2cccc(C(F)(F)F)c2)C[C@H](CCC(=O)O)O3)cc1Cl [Compound 2AN, (S)-3-(6-(3-chloro-4-methoxyphenyl)-4-((3-(trifluoromethyl)phenyl)-sulfonyl)-3,4-dihydro-2H-benzo[b][1,4]oxazin-2-yl)propanoic acid] | **** (The symbol “****” indicates a value greater than 200) | ** (The symbol “**” indicates a value in the range of greater than 90 to 150) | 
13 | < 500 | 500 to 5000 |  | CCn1cc(S(=O)(=O)N2C[C@H](CCC(=O)O)Oc3ccc(-c4cccc(Cl)c4)cc32)c(Cl)n1 [Compound 6C, (S)-3-(4-((3-chloro-1-ethyl-1H-pyrazol-4-yl)sulfonyl)-6-(3-chlorophenyl)-3,4-dihydro-2H-benzo[b][1,4]oxazin-2-yl)propanoic acid] | **** (The symbol “****” indicates a value greater than 200) | ** (The symbol “**” indicates a value in the range of greater than 90 to 150) | 
14 | < 500 | < 500 |  | CC(C)(O)C(=O)NCC[C@H]1CN(S(=O)(=O)c2cccc(OC(F)F)c2)c2cc(-c3cc(F)ccc3F)ccc2O1 [Compound 30P, (S)-N-(2-(4-((3-(difluoro-methoxy)phenyl)sulfonyl)-6-(2,5-difluorophenyl)-3,4-dihydro-2H-benzo[b][1,4]oxazin-2-yl)ethyl)-2-hydroxy-2-methylpropanamide] | **** (The symbol “****” indicates a value greater than 200) | ** (The symbol “**” indicates a value in the range of greater than 90 to 150) | 
15 | < 500 | 500 to 5000 |  | CN(CCC(=O)O)C(=O)NC[C@H]1CN(S(=O)(=O)c2cccc(C(F)(F)F)c2)c2cc(-c3cc(F)ccc3F)ccc2O1 [Compound 23R, (S)-3-(3-((6-(2,5-difluorophenyl)-4-((3-(trifluoromethyl)phenyl)-sulfonyl)-3,4-dihydro-2H-benzo[b][1,4]oxazin-2-yl)methyl)-1-methylureido)propanoic acid] | **** (The symbol “****” indicates a value greater than 200) | ** (The symbol “**” indicates a value in the range of greater than 90 to 150) | 
